According to PubChem BioAssay AID248 (DTP/NCI, 2004):
Several values for one entry are separate records, joined by “and”; a condition that tells them apart may be missing. Identical values can stand only once. Inconclusive results and toxic doses are left out.

Tested on: L1210 leukemia ip in BDF1 mice, survival T/C
Experiment: NCI In Vivo Anticancer Drug Screen. Data for tumor model L1210 Leukemia (intraperitoneal) in B6D2F1 (BDF1) mice
Settings: endpoint: mean survival time, higher = longer survival
How it was run: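 Survival endpoint. Drug-treated group vs vehicle group, expressed as T divided by C. Tumor passaged by transplantation.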

[1] = dose: 50.0 mg/kg/injection, schedule: Q04DX002 (ip), vehicle: Klucel (hydroxypropylcellulose) (HPC)
[2] = dose: 100.0 mg/kg/injection, schedule: Q04DX002 (ip), vehicle: Klucel (hydroxypropylcellulose) (HPC)
[3] = dose: 200.0 mg/kg/injection, schedule: Q04DX002 (ip), vehicle: Klucel (hydroxypropylcellulose) (HPC)
[4] = dose: 100.0 mg/kg/injection, schedule: Q04DX003 (ip), vehicle: saline
[5] = dose: 100.0 mg/kg/injection, schedule: Q04DX003 (ip), vehicle: saline with Tween-80
[6] = dose: 400.0 mg/kg/injection, schedule: Q04DX003 (ip), vehicle: saline with Tween-80

`CC(=O)C(CCC#N)(CCC#N)C(C)=O` was tested, and the T/C [1] was 101 % of control, the T/C [2] was 95 % of control and 105 % of control and the T/C [3] was 100 % of control. The T/C (dose: 400.0 mg/kg/injection, schedule: Q04DX002 (ip), vehicle: Klucel (hydroxypropylcellulose) (HPC)) was 97 % of control and 86 % of control.
With `CCC[N+](CC)(CC)CCOC(=O)C1C2CC3OC(=O)C1C3C2` (centres undefined) the T/C [4] was 101 % of control.
`CCCCOP(=S)(Nc1ccccc1)OCCCC` was tested, and the T/C (dose: 100.0 mg/kg/injection, schedule: Q04DX003 (ip), vehicle: Klucel (hydroxypropylcellulose) (HPC)) was 107 % of control, the T/C (dose: 200.0 mg/kg/injection, schedule: Q04DX003 (ip), vehicle: Klucel (hydroxypropylcellulose) (HPC)) was 107 % of control and the T/C (dose: 400.0 mg/kg/injection, schedule: Q04DX003 (ip), vehicle: Klucel (hydroxypropylcellulose) (HPC)) was 122 % of control.
With `O=C1C(NCC(O)CO)=C(N2CC2)C(=O)C(NCC(O)CO)=C1N1CC1` (centres undefined) the T/C (dose: 0.12 mg/kg/injection, schedule: Q04DX003 (ip), vehicle: saline) was 106 % of control, the T/C (dose: 0.25 mg/kg/injection, schedule: Q01DX009 (ip), vehicle: saline) was 119 % of control and 120 % of control and the T/C (dose: 0.25 mg/kg/injection, schedule: Q04DX003 (ip), vehicle: saline) was 106 % of control. For the same compound, the T/C (dose: 0.5 mg/kg/injection, schedule: Q01DX009 (ip), vehicle: saline) was 120 % of control and 121 % of control, the T/C (dose: 0.5 mg/kg/injection, schedule: Q04DX003 (ip), vehicle: saline) was 112 % of control and the T/C (dose: 1.0 mg/kg/injection, schedule: Q01DX009 (ip), vehicle: saline) was 156 % of control. The T/C (dose: 1.0 mg/kg/injection, schedule: Q04DX003 (ip), vehicle: saline) was 104 % of control, the T/C (dose: 2.0 mg/kg/injection, schedule: Q01DX001 (ip), vehicle: saline) was 189 % of control and the T/C (dose: 2.0 mg/kg/injection, schedule: Q01DX009 (ip), vehicle: saline) was 216 % of control and 233 % of control. The T/C (dose: 2.0 mg/kg/injection, schedule: Q04DX003 (ip), vehicle: saline) was 161 % of control, the T/C (dose: 4.0 mg/kg/injection, schedule: Q01DX001 (ip), vehicle: saline) was 153 % of control and the T/C (dose: 4.0 mg/kg/injection, schedule: Q01DX009 (ip), vehicle: saline) was 199 % of control and 306 % of control. The T/C (dose: 4.0 mg/kg/injection, schedule: Q04DX003 (ip), vehicle: saline) was 173 % of control and 190 % of control, the T/C (dose: 8.0 mg/kg/injection, schedule: Q01DX009 (ip), vehicle: saline) was 98 % of control and 102 % of control and the T/C (dose: 8.0 mg/kg/injection, schedule: Q04DX003 (ip), vehicle: saline) was 179 % of control.
In the case of `CCCCn1cnc2ccc3[nH]c(C)nc3c2c1=O`, the T/C (dose: 12.5 mg/kg/injection, schedule: Q01DX001 (ip), vehicle: carboxymethylcellulose (CMC)) is reported as 104 % of control and the T/C (dose: 25.0 mg/kg/injection, schedule: Q01DX001 (ip), vehicle: carboxymethylcellulose (CMC)) is reported as 96 % of control.
In the case of `CN(C)CCC(C(=O)N(C)C)(c1ccccc1)c1ccccc1`, the T/C (dose: 75.0 mg/kg/injection, schedule: Q01DX001 (ip), vehicle: carboxymethylcellulose (CMC)) is reported as 94 % of control and the T/C (dose: 150.0 mg/kg/injection, schedule: Q01DX001 (ip), vehicle: carboxymethylcellulose (CMC)) is reported as 97 % of control.
For `CCCCSCCOC(=O)Nc1ccc(Cl)cc1`, the T/C (dose: 100.0 mg/kg/injection, schedule: Q01DX009 (ip), vehicle: Klucel (hydroxypropylcellulose) (HPC)) was 103 % of control, the T/C (dose: 200.0 mg/kg/injection, schedule: Q01DX009 (ip), vehicle: Klucel (hydroxypropylcellulose) (HPC)) was 108 % of control and the T/C (dose: 400.0 mg/kg/injection, schedule: Q01DX009 (ip), vehicle: Klucel (hydroxypropylcellulose) (HPC)) was 92 % of control.
In the case of `CCCSCSCCC`, the T/C (dose: 100.0 mg/kg/injection, schedule: Q01DX001 (ip), vehicle: saline) is reported as 105 % of control, the T/C (dose: 100.0 mg/kg/injection, schedule: Q01DX009 (ip), vehicle: saline) is reported as 105 % of control and the T/C [4] is reported as 98 % of control. For the same compound, the T/C (dose: 200.0 mg/kg/injection, schedule: Q01DX001 (ip), vehicle: saline) was 98 % of control, the T/C (dose: 200.0 mg/kg/injection, schedule: Q01DX009 (ip), vehicle: saline) was 97 % of control and the T/C (dose: 200.0 mg/kg/injection, schedule: Q04DX003 (ip), vehicle: saline) was 104 % of control. For the same compound, the T/C (dose: 400.0 mg/kg/injection, schedule: Q01DX001 (ip), vehicle: saline) was 98 % of control, the T/C (dose: 400.0 mg/kg/injection, schedule: Q01DX009 (ip), vehicle: saline) was 100 % of control and the T/C (dose: 400.0 mg/kg/injection, schedule: Q04DX003 (ip), vehicle: saline) was 97 % of control.
`c1ccc2c(c1)C1C3CCC(C3)C21` (centres undefined) was tested, and the T/C [5] was 98 % of control and the T/C [6] was 98 % of control.
In the case of `CCOc1ccc(Cl)cc1C1N(Cc2ccc(OC)cc2)CCCN1Cc1ccc(OC)cc1`, the T/C (dose: 100.0 mg/kg/injection, schedule: Q01DX001 (ip), vehicle: carboxymethylcellulose (CMC)) is reported as 98 % of control, the T/C (dose: 200.0 mg/kg/injection, schedule: Q01DX001 (ip), vehicle: carboxymethylcellulose (CMC)) is reported as 98 % of control and the T/C (dose: 400.0 mg/kg/injection, schedule: Q01DX001 (ip), vehicle: carboxymethylcellulose (CMC)) is reported as 102 % of control.
With `CCOC(=O)NC(C)(C)CN(C(=O)OCC)c1ccccc1` the T/C [5] was 111 % of control, the T/C (dose: 200.0 mg/kg/injection, schedule: Q04DX003 (ip), vehicle: saline with Tween-80) was 108 % of control and the T/C [6] was 106 % of control.
For `Nc1cc2c3c(cccc3c1Br)C(=O)OC2=O`, the T/C [2] was 97 % of control and the T/C [3] was 108 % of control.
`COc1cccc(/C=N\N=C\c2cccc(OC)c2O)c1O` was tested, and the T/C (dose: 100.0 mg/kg/injection, schedule: Q01DX001 (ip), vehicle: saline with Tween-80) was 91 % of control, the T/C (dose: 200.0 mg/kg/injection, schedule: Q01DX001 (ip), vehicle: saline with Tween-80) was 103 % of control and 105 % of control and the T/C (dose: 400.0 mg/kg/injection, schedule: Q01DX001 (ip), vehicle: saline with Tween-80) was 94 % of control and 95 % of control.
With `ClCC1=NCCCN1` the T/C (dose: 3.13 mg/kg/injection, schedule: Q01DX009 (ip), vehicle: Klucel (hydroxypropylcellulose) (HPC)) was 93 % of control, the T/C (dose: 6.25 mg/kg/injection, schedule: Q01DX009 (ip), vehicle: Klucel (hydroxypropylcellulose) (HPC)) was 97 % of control and the T/C (dose: 12.5 mg/kg/injection, schedule: Q01DX009 (ip), vehicle: Klucel (hydroxypropylcellulose) (HPC)) was 97 % of control. For the same compound, the T/C (dose: 12.5 mg/kg/injection, schedule: Q04DX002 (ip), vehicle: Klucel (hydroxypropylcellulose) (HPC)) was 97 % of control, the T/C (dose: 25.0 mg/kg/injection, schedule: Q01DX009 (ip), vehicle: Klucel (hydroxypropylcellulose) (HPC)) was 97 % of control and the T/C (dose: 25.0 mg/kg/injection, schedule: Q04DX002 (ip), vehicle: Klucel (hydroxypropylcellulose) (HPC)) was 104 % of control. The T/C (dose: 50.0 mg/kg/injection, schedule: Q01DX009 (ip), vehicle: Klucel (hydroxypropylcellulose) (HPC)) was 97 % of control, the T/C [1] was 104 % of control and the T/C [2] was 98 % of control.
`NC(CO)C(=O)O.[Cl-].[Cl-].[Cl-].[Cl-].[Pt+2]` (centres undefined) was tested, and the T/C (dose: 12.5 mg/kg/injection, schedule: Q01DX009 (ip), vehicle: saline) was 114 % of control and 117 % of control, the T/C (dose: 25.0 mg/kg/injection, schedule: Q01DX009 (ip), vehicle: saline) was 122 % of control and the T/C (dose: 50.0 mg/kg/injection, schedule: Q01DX009 (ip), vehicle: saline) was 119 % of control.
